Test results as given in US5280027A, “Anti-tumor compounds” (Imperial Chemical Industries PLC, priority 1990, dated 1994).
Where two headings read alike, the source gives them in different places.

Experiments:
MCF-7 cell line = test: Test (c): inhibition of growth of the human breast cancer cell line MCF-7 in cell culture; assay type: cell-based; details: MCF7, MCF-7 growth
Source text: (c) An assay which determines the ability of a test compound to inhibit the growth of the human breast cancer cell line MCF-7 in cell culture. The test is similar to that described by Lippman et al. (Cancer Res., 1976, 36, 4595); and […]

L1210 cell line = test: Test (b): inhibition of growth of the leukaemia cell line L1210 in cell culture; assay type: cell-based; details: Mus musculus
Source text: (b) An assay which determines the ability of a test compound to inhibit the growth of the leukaemia cell line L1210 in cell culture. The test is similar to that described in UK Patent Specification No. 2065653B and has been described by Jones et al., J. Med. Chem., 1985, 28, 1468;

thymidylate synthase = biological target: T1, thymidylate synthase (Mus musculus, UniProt P07607); test: Test (a): in vitro inhibition of the enzyme thymidylate synthase (partially purified from L1210 mouse leukaemia cells); assay type: biochemical
T1 construct: obtained in partially purified form from L1210 mouse leukaemia cells; endogenous in cells; host or cells: L1210 mouse leukaemia cells (enzyme partially purified)
Source text: (a) An in vitro assay which determines the ability of a test compound to inhibit the enzyme thymidylate synthase. Thymidylate synthase was obtained in partially purified form from L1210 mouse leukaemia cells and utilised using the procedures described by Jackman et al. (Cancer Res., 1986, 46, 2810 and Sikora et al., Biochem. Pharmacol. 1988, 37, 4047);

[1] = cited from earlier work
[2] = tested on: human breast, ovarian and liver cancer; details: clinical; cited from earlier work
[3] = Test (a), thymidylate synthase, read-out: IC50

T1 sequence (P07607 whole entry): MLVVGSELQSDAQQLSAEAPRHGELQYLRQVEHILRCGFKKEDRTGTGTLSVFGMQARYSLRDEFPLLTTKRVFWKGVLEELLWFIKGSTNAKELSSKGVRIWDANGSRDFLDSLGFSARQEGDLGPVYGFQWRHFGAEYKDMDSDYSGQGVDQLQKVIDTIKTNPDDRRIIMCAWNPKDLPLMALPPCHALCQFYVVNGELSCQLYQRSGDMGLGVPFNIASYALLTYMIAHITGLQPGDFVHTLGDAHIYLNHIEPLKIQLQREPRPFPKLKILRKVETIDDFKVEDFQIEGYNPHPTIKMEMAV

| SMILES | IC50 (MCF-7 cell line) [nM] | IC50 (L1210 cell line) [µM] | IC50 (thymidylate synthase; [3]) [nM] | IC50 (thymidylate synthase) [nM] | toxicity in humans, particularly in relation to the liver and kidney [1] | activity against human breast, ovarian and liver cancer [2] |
| --- | --- | --- | --- | --- | --- | --- |
| C#CCN(Cc1ccc2nc(C)[nH]c(=O)c2c1)c1ccc(C(=O)NC(c2ccccc2)c2ccccc2)cc1 [Example 7, N-diphenylmethyl-p-[N-(2-methyl-4-oxo-3,4-dihydroquinazolin-6-ylmethyl)-N-(prop-2-ynyl)amino]benzamide] | ~1500 | ~7 | ~2000 |  |  |  |
| C#CCN(Cc1ccc2nc(C)[nH]c(=O)c2c1)c1ccc(C(=O)NC(C(=O)NS(=O)(=O)c2ccc(OC)cc2)c2cccc([N+](=O)[O-])c2)cc1 (centres unmarked) [Example 10, N-[p-[N-(2-methyl-4-oxo-3,4-dihydroquinazolin-6-ylmethyl)-N-(prop-2-ynyl)amino]benzoyl]-(3-nitrophenyl)glycine N-(4-methoxyphenylsulphonyl)amide] | ~1000 | ~25 |  | ~10 |  |  |
| C#CCN(Cc1ccc2nc(N)[nH]c(=O)c2c1)c1ccc(C(=O)N[C@@H](CCC(=O)O)C(=O)O)cc1 [CB3717] |  |  |  |  | symptoms of toxicity in humans, particularly in relation to the liver and kidney | promising activity |
| C#CCN(Cc1cc2c(=O)[nH]c(C)nc2cc1C)c1ccc(C(=O)NC(CO)c2cccc([N+](=O)[O-])c2)cc1 (centres unmarked) [Example 14, compound no. 2, p-[N-(2,7-dimethyl-4-oxo-3,4-dihydroquinazolin-6-ylmethyl)-N-(prop-2-ynyl)amino]-N-[2-hydroxy-1-(3-nitrophenyl)ethyl]benzamide] | ~100 | ~3.4 | ~20 |  |  |  |
